Measured values taken from US7790721B2, “Pyrroloquinoxalinone inhibitors of poly(ADP-ribose)polymerase” (Abbott Laboratories, priority 2006, dated 2010).
Like-named read-outs stand apart in the source and are kept apart here. Blank lines part the entries; values can stand above or below the molecule they belong to.

Legend:
PARP-1 = molecular target: T1, PARP-1 (Homo sapiens, UniProt P09874); test: PARP1 assay (inhibition of PARP, [3H]-NAD+ / biotinylated histone H1, FlashPlate scintillation); assay type: biochemical
T1 construct: purchased Trevigen (Gaithersburg, Md.); host or cells: E. coli
Experimental: Nicotinamide[2,5′,8-3H]adenine dinucleotide and strepavidin SPA beads were purchased from Amersham Biosiences (Buckinghamshire, U.K.). […] NAD^+, histone, aminobenzamide, 3-amino benzamide and Calf Thymus DNA (dcDNA) were purchased from Sigma (St. Louis, Mo.). […] Biotinylated histone H1 was prepared by treating the protein with Sulfo-NHS-LC-Biotin from Pierce (Rockford, Ill.). The biotinylation reaction was conducted by slowly and intermittently adding 3 equivalents of 10 mM Sulfo-NHS-LC-Biotin to 100 μM Histone H1 in phosphate-buffered saline, pH 7.5, at 4° C. with gentle vortexing over 1 minute followed by subsequent 4° C. incubation for 1 hour. Streptavidin coated (FLASHPLATE PLUS®) microplates were purchased from Perkin Elmer (Waltham, Mass.).
PARP1 assay was conducted in PARP assay buffer containing 50 mM Tris pH 8.0, 1 mM DTT, 4 mM MgCl2. […] Auto reactions utilizing SPA bead-based detection were carried out in 100 μL volumes in white 96 well plates. Reactions were initiated by adding 50 μl of 2× NAD^+ substrate mixture to 50 μL of 2× enzyme mixture containing PARP and DNA. […] 170 μL of the stopped reaction mixtures were transferred to streptavidin FLASHPLATE PLUS®, incubated for 1 hour, and counted using a TOPCOUNT® microplate scintillation counter from Perkin Elmer (Waltham, Mass.).

PARP in C41 cells = molecular target: T2, PARP in C41 cells (Homo sapiens, UniProt P09874); test: Cellular PARP assay (PAR formation after H2O2 DNA damage, anti-PAR immunofluorescence); assay type: cell-based; conditions: compound 30 minutes, then 1 mM H2O2 for 10 minutes, FITC signal normalized with DAPI, read-out: Cell, EC50
T2 construct: endogenous in cells; host or cells: C41 cells
Experimental: C41 cells were treated with a compound of this invention for 30 minutes in 96 well plate. PARP was then activated by damaging DNA with 1 mM H2O2 for 10 minutes. The cells were then washed with ice-cold PBS once and fixed with pre-chilled methanol:acetone (7:3) at −20° C. for 10 minutes. After air-drying, the plates were rehydrated with PBS and blocked 5% non-fat dry milk in PBS-TWEEN20® (Sigma, St. Louis, Mo.) (0.05%) (blocking solution) for 30 minutes at room temperature. The cells were incubated with anti-PAR antibody 10H (1:50) in Blocking solution at 37° C. for 60 minutes followed by washing with PBS-TWEEN20® 5 times, and incubation with goat anti-mouse fluorescein 5(6)-isothiocyanate-coupled antibody (1:50) and 1 μg/ml 4′,6-diamidino-2-phenylindole (DAPI) in blocking solution at 37° C. for 60 minutes. […] The PARP activity (FITC signal) was normalized with cell numbers (DAPI).

[1] = recombinant human PARP, 1 nM enzyme, 1.5 μM [3H]-NAD+, inhibition curves at various substrate concentrations, read-out: PARP-1 (Ki)

T1 sequence (P09874 whole entry): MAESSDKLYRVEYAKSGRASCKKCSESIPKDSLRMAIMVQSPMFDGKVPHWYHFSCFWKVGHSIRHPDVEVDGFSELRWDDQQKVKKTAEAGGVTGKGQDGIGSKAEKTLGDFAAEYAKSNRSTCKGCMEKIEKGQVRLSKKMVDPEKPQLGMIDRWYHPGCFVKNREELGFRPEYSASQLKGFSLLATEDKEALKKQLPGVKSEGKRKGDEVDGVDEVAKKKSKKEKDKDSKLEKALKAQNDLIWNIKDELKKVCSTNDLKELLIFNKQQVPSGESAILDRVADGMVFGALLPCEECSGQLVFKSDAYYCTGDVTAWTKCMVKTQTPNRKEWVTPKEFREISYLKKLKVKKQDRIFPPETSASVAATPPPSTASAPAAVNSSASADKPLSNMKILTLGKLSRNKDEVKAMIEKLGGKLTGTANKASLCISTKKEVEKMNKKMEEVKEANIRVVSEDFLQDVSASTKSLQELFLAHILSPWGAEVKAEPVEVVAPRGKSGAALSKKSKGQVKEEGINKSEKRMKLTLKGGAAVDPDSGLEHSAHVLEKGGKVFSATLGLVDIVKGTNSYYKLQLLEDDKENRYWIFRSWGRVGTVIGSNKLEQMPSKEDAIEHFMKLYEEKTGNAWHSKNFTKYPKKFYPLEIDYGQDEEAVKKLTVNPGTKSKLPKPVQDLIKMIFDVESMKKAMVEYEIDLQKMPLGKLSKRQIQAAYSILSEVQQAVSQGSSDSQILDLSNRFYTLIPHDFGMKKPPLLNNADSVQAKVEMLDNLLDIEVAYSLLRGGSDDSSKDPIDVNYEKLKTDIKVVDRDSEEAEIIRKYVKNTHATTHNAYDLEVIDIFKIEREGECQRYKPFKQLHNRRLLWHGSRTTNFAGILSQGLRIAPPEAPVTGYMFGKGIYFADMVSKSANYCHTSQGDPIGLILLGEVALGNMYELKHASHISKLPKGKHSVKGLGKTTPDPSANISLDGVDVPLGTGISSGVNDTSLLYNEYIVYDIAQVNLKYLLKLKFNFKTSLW
T2 sequence (P09874 whole entry): as above

Compound: O=C(c1ccc2c(c1)[nH]c(=O)c1cccn12)N1CCCCC1 [Example 85, 7-(piperidin-1-ylcarbonyl)pyrrolo[1,2-a]quinoxalin-4(5H)-one]
Ki (PARP-1; [1]): 16 nM
EC50 (PARP in C41 cells): 23 nM

Compound: CC(C)NCc1ccc2[nH]c(=O)c3cccn3c2c1 [Example 13, 8-((isopropylamino)methyl)pyrrolo[1,2-a]quinoxalin-4(5H)-one]
Ki (PARP-1; [1]): 44 nM
EC50 (PARP in C41 cells): 37 nM

Compound: NC1CCN(Cc2ccc3c(c2)[nH]c(=O)c2cccn23)CC1 [Example 86, 7-[(4-aminopiperidin-1-yl)methyl]pyrrolo[1,2-a]quinoxalin-4(5H)-one]
Ki (PARP-1; [1]): 35 nM
EC50 (PARP in C41 cells): 204 nM

Compound: O=c1[nH]c2cc(CN3CCCC3)ccc2n2cccc12 [Example 7, 7-(pyrrolidin-1-ylmethyl)pyrrolo[1,2-a]quinoxalin-4(5H)-one]
Ki (PARP-1): 6 nM
EC50 (PARP in C41 cells): 5.4 nM

Compound: O=c1[nH]c2ccc(CNCc3ccccc3)cc2n2cccc12 [Example 20, 8-((benzylamino)methyl)pyrrolo[1,2-a]quinoxalin-4(5H)-one]
Ki (PARP-1; [1]): 131 nM

Further lines, with some results ahead:

Ki (PARP-1): 60 nM
Compound: CN(C)Cc1ccc2c(c1)NC(=O)C1CCCN21 (stereo not drawn) [Example 44, 7-[(dimethylamino)methyl]-1,2,3,3a-tetrahydropyrrolo[1,2-a]quinoxalin-4(5H)-one]
EC50 (PARP in C41 cells): 143 nM

Ki (PARP-1): 32 nM
Compound: O=c1[nH]c2ccc(CNC3CC3)cc2n2cccc12 [Example 12, 8-((cyclopropylamino)methyl)pyrrolo[1,2-a]quinoxalin-4(5H)-one]
EC50 (PARP in C41 cells): 13 nM

Ki (PARP-1; [1]): 23 nM
Compound: CN1CCN(CCCNC(=O)c2ccc3c(c2)[nH]c(=O)c2cccn23)CC1 [Example 66, N-[3-(4-methylpiperazin-1-yl)propyl]-4-oxo4,5-dihydropyrrolo[1,2-a]quinoxaline-7-carboxamide]
EC50 (PARP in C41 cells): 32 nM
